Source: publication PMC11371790, “Combination of transcriptomic and proteomic approaches helps unravel the mechanisms of luteolin in inducing liver cancer cell death via targeting AKT1 and SRC” (Frontiers in Pharmacology, 2024)

Tests used:
AKT1 = AKT1 (Homo sapiens, UniProt P31749); test: bio-layer interferometry (biotinylated active AKT1, Carna […]-101, on SSA sensor, Octet K2); type: binding
SRC = SRC (Homo sapiens, UniProt P12931); test: bio-layer interferometry (biotinylated SRC on SSA sensor, Octet K2); type: binding
Sequence of SRC (P12931 2-536): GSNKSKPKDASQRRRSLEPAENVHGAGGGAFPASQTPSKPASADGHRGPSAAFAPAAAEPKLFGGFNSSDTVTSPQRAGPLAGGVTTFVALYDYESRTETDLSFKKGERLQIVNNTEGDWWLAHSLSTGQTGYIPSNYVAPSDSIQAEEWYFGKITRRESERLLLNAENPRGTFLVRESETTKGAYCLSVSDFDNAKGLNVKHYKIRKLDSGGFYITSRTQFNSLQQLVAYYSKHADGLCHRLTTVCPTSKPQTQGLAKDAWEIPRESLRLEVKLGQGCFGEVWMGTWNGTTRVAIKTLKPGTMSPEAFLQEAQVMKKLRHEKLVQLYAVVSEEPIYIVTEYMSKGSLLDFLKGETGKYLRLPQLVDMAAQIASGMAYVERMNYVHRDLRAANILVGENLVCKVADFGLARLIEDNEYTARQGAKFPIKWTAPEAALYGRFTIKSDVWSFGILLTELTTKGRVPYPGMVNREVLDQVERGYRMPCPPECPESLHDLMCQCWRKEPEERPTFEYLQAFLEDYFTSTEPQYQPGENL

Sequence of AKT1 (P31749 whole entry): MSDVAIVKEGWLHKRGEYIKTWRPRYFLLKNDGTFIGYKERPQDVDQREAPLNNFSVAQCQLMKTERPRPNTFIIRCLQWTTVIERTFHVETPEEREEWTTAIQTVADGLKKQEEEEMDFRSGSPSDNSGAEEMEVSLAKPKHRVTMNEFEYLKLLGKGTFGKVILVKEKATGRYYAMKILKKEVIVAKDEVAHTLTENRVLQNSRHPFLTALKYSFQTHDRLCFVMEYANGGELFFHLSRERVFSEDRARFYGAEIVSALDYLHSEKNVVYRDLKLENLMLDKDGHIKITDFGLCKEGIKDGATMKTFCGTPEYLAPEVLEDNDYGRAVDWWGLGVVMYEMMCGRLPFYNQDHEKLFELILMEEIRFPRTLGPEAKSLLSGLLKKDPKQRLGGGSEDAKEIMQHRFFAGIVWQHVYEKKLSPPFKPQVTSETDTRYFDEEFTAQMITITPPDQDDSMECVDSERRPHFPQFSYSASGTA

O=c1cc(-c2ccc(O)c(O)c2)oc2cc(O)cc(O)c12 [Luteolin]
Kd (AKT1): 7.86 µM | Kd (SRC): 1.7 µM
